According to patent US5891913A, “Ophthalmic and aural compositions containing diclofenac potassium” (priority 1994, dated 1999):
Entries after “also recorded” stand apart in the source; their conditions may differ.

What was measured:
[1] = Lens penetration and ocular distribution of 14-C labelled eye drops after multiple topical ocular administration; format: in vivo, chinchilla pigmented rabbits
Experimental: In a first animal model, the ocular distribution and lens penetration of diclofenac potassium and diclofenac sodium is determined after multiple topical ocular administration of a corresponding eye drop composition. […] At regular intervals post-instillation (0.5, 1.5, 2.0 hours), the animals are sacrificed and both eyes are removed. Said eyes are microdissected and the ocular distribution of the radioactivity is measured by a standard scintillation beta counting method.
Lens penetration and ocular distribution of diclofenac potassium and diclofenac sodium were determined after multiple topical ocular administration of corresponding 14-C labelled eye drop composition into the conjunctival sac of the right eye of pigmented rabbits.
At 0.5, 1.5, 2 hours post-instillation, 5 animals for each time-point and each treatment group were sacrificed and the radioactivity content (in ng-Eq/g of structure) in the cornea, aqueous humor, iris-ciliary body, vitreous, whole blood and plasma was measured. At 2 hours post-instillation, the left eyes were removed and the ocular distribution was measured by a standard scintillation beta counting method. The right lenses were used for autoradiography.
The areas under the curve (AUC: ng-Eq/g of structure versus time) were calculated and statistically compared.

uveitis = assay: Uveitis models in rabbits (all the aforementioned animal models: arachidonic acid, argon laser iris photocoagulation, paracentesis); format: in vivo, pigmented rabbits; conditions: compared to diclofenac sodium
Experimental: Uveitis is induced in said model by an argon laser iris photocoagulation in pigmented rabbits. Said iris photocoagulation is induced by 500 μm argon laser burns (power 750 mW, duration 0.1 sec). The inflammatory processes resulting therefrom are measured every 30 minutes after the laser induced photo-coagulation, by using the laser cell flare meter (LCFM) technique.
In addition to the non invasive LCFM evaluation of the above mentioned animal model, an invasive evaluation is carried out. Therefore the rabbits are sacrificed one hour and in regular intervals after which said eyes have been subjected to the traumatic uveitis by photocoagulation, and the aqueous humor of said rabbit eyes is sampled. The aqueous protein levels, cell counts and prostaglandins (PGE2, PGD2, 6-keto PGF1α) which represent the degree of an inflammation are biochemically investigated and quantified.
Another animal model is used for the induction of a traumatic uveitis. It is the induction of a uveitis by the paracentesis of the anterior chamber of the rabbit eye. In analogy to the previously described laser induced uveitis model, drugs to be tested, are again administred prior to the paracentesis challenge. […] The aqueous protein levels are again analyzed, quantified and then correlated with the degree of an inflammation.

[2] = test system: arachidonic acid induced uveitis; assay: Arachidonic acid induced uveitis, aqueous flare by laser cell flare meter (LCFM)
eye = assay: Pharmacological studies: topical (ocular) tolerance, efficacy, onset and duration of action

For `O=C(O)Cc1ccccc1Nc1c(Cl)cccc1Cl` [diclofenac potassium, potassium 2-[(2,6-dichlorophenyl)amino]-phenyl acetate], the “ocular penetration / levels of radioactivity (in words)” value ([1]; in comparison to diclofenac sodium, acetate) was “much superior; also recorded: clearly displayed higher levels of radioactivity”, the “ocular distribution, order of concentrations (in words)” value ([1]; rabbit, in vivo) was “highest concentrations are found in the cornea, and in descending order in the aqueous humor, in the iris ciliary body and in the vitreous” and the “efficacy in all the aforementioned animal models (in words)” value (uveitis) was “better efficacy”. For the same molecule, the “efficacy / degree of inflammation (in words)” value ([2]; 0.05% diclofenac potassium versus 0.1% diclofenac sodium) was “almost totally suppressed”, the “fold efficacy of diclofenac sodium” value ([2]; taking into account 0.1% versus 0.05% drug concentration) was “more than five fold” and the “duration of action (in words)” value (eye; e.g. in the eye) was “long lasting duration of action”. For the same molecule, the “onset of action (in words)” value (eye; e.g. in the eye) was “surprisingly short onset of action” and the “topical tolerance, e.g. ocular tolerance, and efficacy (in words)” value (eye; in comparison to diclofenac sodium) was “much better topical tolerance, e.g. ocular tolerance, and efficacy”.
